In patent US8198311B2, “Modulators of glucocorticoid receptor, AP-1, and/or NF-κB activity and use thereof” (Bristol-Myers Squibb Company, priority 2006, dated 2012):
Like-named read-outs stand apart in the source and are kept apart here.

Tests used:
[1] = test system: AP-1 induced transcriptional activity; assay: Cellular Transrepressional Assay (AP-1 luciferase reporter in A549 cells, PMA-activated); type: cell-based; conditions: pAP-1-Luc, 10 ng/ml PMA, read-out: AP-1 (EC50, nM) (Cellular Transrepression Assay)
Method: To measure the ability of test molecules to inhibit AP-1 induced transcriptional activity an A549 cell was utilized which was stably transfected with a plasmid containing 7×AP-1 DNA binding sites (pAP-1-Luc plasmid, Stratagene Co. La Jolla, Calif.) followed by the gene for luciferase. Cells were activated with 10 ng/ml of phorbol myristic acid (PMA) plus or minus test molecules for 7 hours. After 7 hours a luciferase reagent was added to measure luciferase enzymatic activity in the cell. After a 10 minute incubation of luciferase reagent with cells, luminescence was measured in a TopCount luminescence counter. Repression of AP-1 activity was calculated as the percentage decrease in the signal induced by PMA alone. Test molecules were analyzed in the concentration range from 0.1 nM to 40 μM. EC50s were determined by using standard curve fitting methods such as Excel fit (Microsoft Co.).

[2] = target: T1, human glucocorticoid receptor (Homo sapiens, UniProt P04150); assay: Glucocorticoid Receptor Binding Assay (I), fluorescence polarization competitor kit (Fluormone GS Red); conditions: purified human recombinant full-length GR
T1 construct: purified human recombinant full-length glucocorticoid receptor (2 nM); purchased Invitrogen Part # 2893
T1 sequence (P04150 1-777): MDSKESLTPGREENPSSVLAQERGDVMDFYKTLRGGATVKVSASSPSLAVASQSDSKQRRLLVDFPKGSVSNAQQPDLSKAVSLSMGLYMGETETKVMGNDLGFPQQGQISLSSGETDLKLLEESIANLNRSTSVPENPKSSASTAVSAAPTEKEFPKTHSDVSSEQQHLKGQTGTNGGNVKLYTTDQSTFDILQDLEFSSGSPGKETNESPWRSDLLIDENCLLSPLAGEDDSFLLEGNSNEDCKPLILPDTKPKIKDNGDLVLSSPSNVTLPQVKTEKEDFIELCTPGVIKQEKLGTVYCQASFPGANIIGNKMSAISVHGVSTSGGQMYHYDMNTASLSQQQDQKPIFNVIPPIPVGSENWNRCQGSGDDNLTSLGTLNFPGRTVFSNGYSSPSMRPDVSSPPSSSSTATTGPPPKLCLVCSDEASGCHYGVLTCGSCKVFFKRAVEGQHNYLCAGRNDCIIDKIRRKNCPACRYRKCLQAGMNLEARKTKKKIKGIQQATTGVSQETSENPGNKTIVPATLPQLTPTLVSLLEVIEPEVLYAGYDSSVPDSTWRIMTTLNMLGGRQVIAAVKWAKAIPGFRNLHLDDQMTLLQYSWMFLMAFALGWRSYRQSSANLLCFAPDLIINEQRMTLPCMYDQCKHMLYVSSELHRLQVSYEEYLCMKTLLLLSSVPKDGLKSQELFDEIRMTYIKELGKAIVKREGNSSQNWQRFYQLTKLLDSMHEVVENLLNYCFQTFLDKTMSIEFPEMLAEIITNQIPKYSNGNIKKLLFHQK
Method: In order to assess the affinity of test compounds for the human glucocorticoid receptor, a commercially available kit was used (Glucocorticoid Receptor Competitor Assay Kit, Invitrogen Part # 2893). Briefly, purified human recombinant full-length glucocorticoid receptor (2 nM) was mixed with fluorescently labeled glucocorticoid (1 nM Fluormone GS Red) in the presence or absence of test compound. After two hour incubation at room temperature in the dark, the fluorescence polarization (FP) of the samples was measured. […] Test compounds were analyzed in the concentration range from 8.5E-05 μM to 5 μM.

Structure (SMILES): Cc1cc(C)c(S(=O)(=O)NCC(C)(C)C(CC(C)C)c2ccc3c(cnn3-c3ccc(F)cc3)c2)c(C)c1 (stereo not drawn) [Example 81, N-(3-(1-(4-fluorophenyl)-1H-indazol-5-yl)-2,2,5-trimethylhexyl)-2,4,6-trimethylbenzenesulfonamide]
- EC50 ([1]; Homo sapiens, A549, 7 h): > 5000 nM
- Ki [2]: 8.7 nM

Structure (SMILES): CC(CNS(=O)(=O)C(C)C)C(c1ccccc1)c1ccc2c(cnn2-c2ccc(F)cc2)c1 (stereo not drawn) [Example 94, N-(3-(1-(4-fluorophenyl)-1H-indazol-5-yl)-2-methyl-3-phenylpropyl)propane-2-sulfonamide]
- EC50 ([1]; Homo sapiens, A549, 7 h): 12 nM
- Ki [2]: 0.73 nM

Structure (SMILES): CC(C)CC(c1ccc2c(cnn2-c2ccc(F)cc2)c1)C(C)(C)CNC(=O)NC(CO)Cc1ccc(Cl)cc1 (stereo not drawn) [Example 80, 1-(1-(4-chlorophenyl)-3-hydroxypropan-2-yl)-3-(3-(1-(4-fluorophenyl)-1H-indazol-5-yl)-2,2,5-trimethylhexyl)urea]
- EC50 ([1]; Homo sapiens, A549, 7 h): 234 nM
- Ki [2]: 3 nM

Structure (SMILES): CC(C)(CNC(=O)CC(F)(F)F)C1(c2ccc3c(cnn3-c3ccc(F)cc3)c2)CCOCC1 [Example 113, 3,3,3-Trifluoro-N-(2-(4-(1-(4-fluorophenyl)-1H-indazol-5-yl)tetrahydro-2H-pyran-4-yl)-2-methylpropyl)propanamide]
- Ki [2]: 22 nM

Structure (SMILES): CC(C)C(=O)NCC(C)(C)[C@@H](c1ccccc1)c1ccc2c(cnn2-c2ccc(F)cc2)c1 [Example 4, (S)-N-(3-(1-(4-fluorophenyl)-1H-indazol-5-yl)-2,2-dimethyl-3-phenylpropyl)isobutyramide]
- EC50 ([1]; Homo sapiens, A549, 7 h): 1280 nM

Structure (SMILES): CC(C)CC(c1ccc2c(cnn2-c2ccc(F)cc2)c1)C(C)(C)CNC(=O)N[C@@H]1c2ccccc2C[C@@H]1O (stereo partly drawn) [Example 78, 1-(3-(1-(4-fluorophenyl)-1H-indazol-5-yl)-2,2,5-trimethylhexyl)-3-((1R,2S)-2-hydroxy-2,3-dihydro-1H-inden-1-yl)urea]
- EC50 ([1]; Homo sapiens, A549, 7 h): 813 nM
- Ki [2]: 2.2 nM

Structure (SMILES): CC(C)(C)NC(=O)NCC(C)(C)C(c1ccc2c(cnn2-c2ccc(F)cc2)c1)C1CCCC1 (stereo not drawn) [Example 106, 1-tert-butyl-3-(3-cyclopentyl-3-(1-(4-fluorophenyl)-1H-indazol-5-yl)-2,2-dimethylpropyl)urea]
- EC50 ([1]; Homo sapiens, A549, 7 h): 304 nM
- Ki [2]: 3.3 nM

Structure (SMILES): CC(C)CC(c1ccc2c(cnn2-c2ccc(F)cc2)c1)C(C)(C)CNC(=O)Nc1ccccc1 (stereo not drawn) [Example 50, 1-(3-(1-(4-fluorophenyl)-1H-indazol-5-yl)-2,2,5-trimethylhexyl)-3-phenylurea]
- EC50 ([1]; Homo sapiens, A549, 7 h): 223 nM
- Ki [2]: 7.5 nM

Structure (SMILES): CC(C)CC(c1ccc2c(cnn2-c2ccc(F)cc2)c1)C(C)(C)CNC(=O)N[C@H](C)c1cccc2ccccc12 (stereo partly drawn) [Example 75, 1-(3-(1-(4-fluorophenyl)-1H-indazol-5-yl)-2,2,5-trimethylhexyl)-3-((R)-1-(naphthalene-1-yl)ethyl)urea]
- EC50 ([1]; Homo sapiens, A549, 7 h): 628 nM
- Ki [2]: 8.9 nM

Structure (SMILES): CC(C)CC(c1ccc2c(cnn2-c2ccc(F)cc2)c1)C(C)(C)CNC(=O)NC1CCC(C(C)(C)C)CC1 (stereo not drawn) [Example 74, 1-(4-tert-butylcyclohexyl)-3-(3-(1-(4-fluorophenyl)-1H-indazol-5-yl)-2,2,5-trimethylhexyl)urea]
- EC50 ([1]; Homo sapiens, A549, 7 h): > 10000 nM
- Ki [2]: 26 nM

Structure (SMILES): CC(CNC(=O)NC(C)(C)C)C(c1ccccc1)c1ccc2c(cnn2-c2ccc(F)cc2)c1 (single isomer, unassigned) [Example 97C, 1-tert-butyl-3-(3-(1-(4-fluorophenyl)-1H-indazol-5-yl)-2-methyl-3-phenylpropyl)urea]
- EC50 ([1]; 7 hours): 158 nM
- Ki [2]: 3.5 nM

Structure (SMILES): CC(CNC(=O)NC(C)(C)C)C(c1ccccc1)c1ccc2c(cnn2-c2ccc(F)cc2)c1 (single isomer, unassigned) [Example 97B, 1-tert-butyl-3-(3-(1-(4-fluorophenyl)-1H-indazol-5-yl)-2-methyl-3-phenylpropyl)urea]
- EC50 ([1]; 7 hours): 136 nM
- Ki [2]: 43 nM

Structure (SMILES): CN(C)S(=O)(=O)NCC(C)(C)[C@@H](c1ccccc1)c1ccc2c(cnn2-c2ccc(F)cc2)c1 [Example 15, (S)-N-dimethyl-N′-(3-(1-(4-fluorophenyl)-1H-indazol-5-yl)-2,2-dimethyl-3-phenylpropyl)propane-1-sulfamide]
- EC50 ([1]; Homo sapiens, A549, 7 h): 2780 nM

Structure (SMILES): CC(C)CC(c1ccc2c(cnn2-c2ccc(F)cc2)c1)C(C)(C)CNC(=O)NCC(C)(C)C (stereo not drawn) [Example 35, 1-(3-(1-(4-fluorophenyl)-1H-indazol-5-yl)-2,2,5-trimethylhexyl)-3-neopentylurea]
- EC50 ([1]; Homo sapiens, A549, 7 h): 159 nM
- Ki [2]: 2.3 nM

Structure (SMILES): CC(C)(C)NC(=O)NCC(C)(C)C(CCCO)c1ccc2c(cnn2-c2ccc(F)cc2)c1 (stereo not drawn) [Example 107, 1-tert-Butyl-3-(3-(1-(4-fluorophenyl)-1H-indazol-5-yl)-6-hydroxy-2,2-dimethylhexyl)urea]
- EC50 ([1]; Homo sapiens, A549, 7 h): 2020 nM
- Ki [2]: 3.1 nM

Structure (SMILES): CC(C)(C)NC(=O)NCC(C)(C)C(c1ccc2c(cnn2-c2ccc(F)cc2)c1)C1CC1 (stereo not drawn) [Example 102, 1-tert-butyl-3-(3-cyclopropyl-3-(1-(4-fluorophenyl)-1H-indazol-5-yl)-2,2-dimethylpropyl)urea]
- EC50 ([1]; Homo sapiens, A549, 7 h): 691 nM
- Ki [2]: 8.4 nM

Structure (SMILES): CC(CNS(=O)(=O)CC(F)(F)F)C(c1ccccc1)c1ccc2c(cnn2-c2ccc(F)cc2)c1 (single isomer, unassigned) [Example 91A, 2,2,2-trifluoro-N-(3-(1-(4-fluorophenyl)-1H-indazol-5-yl)-2-methyl-3-phenylpropyl)ethanesulfonamide]
- EC50 ([1]; 7 hours): 5.7 nM
- Ki [2]: 2.1 nM

Structure (SMILES): CC(C)CCC(=O)NCC(C)(C)[C@@H](c1ccccc1)c1ccc2c(cnn2-c2ccc(F)cc2)c1 [Example 2, (S)-N-(3-(1-(4-fluorophenyl)-1H-indazol-5-yl)-2,2-dimethyl-3-phenylpropyl)-4-methylpentanamide]
- EC50 ([1]; Homo sapiens, A549, 7 h): 508 nM

Structure (SMILES): CC(C)(CNC(=O)Cc1ccccc1)[C@@H](c1ccccc1)c1ccc2c(cnn2-c2ccc(F)cc2)c1 [Example 3, (S)-N-(3-(1-(4-fluorophenyl)-1H-indazol-5-yl)-2,2-dimethyl-3-phenylpropyl)-2-phenylacetamide]
- EC50 ([1]; Homo sapiens, A549, 7 h): 2520 nM

Structure (SMILES): CC(C)(CNS(=O)(=O)C1CC1)[C@@H](c1ccccc1)c1ccc2c(cnn2-c2ccc(F)cc2)c1 [Example 12, (S)-N-(3-(1-(4-fluorophenyl)-1H-indazol-5-yl)-2,2-dimethyl-3-phenylpropyl)cyclopropanesulfonamide]
- EC50 ([1]; Homo sapiens, A549, 7 h): 211 nM

Structure (SMILES): C#CC(C)(C)NC(=O)NCC(C)(C)C(CC(C)C)c1ccc2c(cnn2-c2ccc(F)cc2)c1 (stereo not drawn) [Example 72, 1-(3-(1-(4-fluorophenyl)-1H-indazol-5-yl)-2,2,5-trimethylhexyl)-3-(2-methylbut-3-yn-2-yl)urea]
- Ki [2]: 55 nM

Structure (SMILES): CC(C)(CNS(=O)(=O)CS(C)(=O)=O)[C@@H](c1ccccc1)c1ccc2c(cnn2-c2ccc(F)cc2)c1 [Example 14, (S)-N-(3-(1-(4-fluorophenyl)-1H-indazol-5-yl)-2,2-dimethyl-3-phenylpropyl)-1-(methylsulfonyl)methanesulfonamide]
- EC50 ([1]; Homo sapiens, A549, 7 h): 1860 nM

Structure (SMILES): CC(C)(CNC(=O)c1cccs1)[C@H](c1ccccc1)c1ccc2c(cnn2-c2ccc(F)cc2)c1 [Example 20, (R)-N-(3-(1-(4-fluorophenyl)-1H-indazol-5-yl)-2,2-dimethyl-3-phenylpropyl)thiophene-2-carboxamide]
- EC50 ([1]; Homo sapiens, A549, 7 h): 573 nM

Structure (SMILES): CC(C)(CNC(=O)C(F)(F)F)[C@@H](c1ccccc1)c1ccc2c(cnn2-c2ccc(F)cc2)c1 [(S)-16, (S)-2,2,2-trifluoro-N-(3-(1-(4-fluorophenyl)-1H-indazol-5-yl)-2,2-dimethyl-3-phenylpropyl)acetamide]
- EC50 ([1]; Homo sapiens, A549, 7 h): 2270 nM

Structure (SMILES): CC(C)(C)C(=O)NCC(C)(C)[C@@H](c1ccccc1)c1ccc2c(cnn2-c2ccc(F)cc2)c1 [Example 5, (S)-N-(3-(1-(4-fluorophenyl)-1H-indazol-5-yl)-2,2-dimethyl-3-phenylpropyl)pivalamide]
- EC50 ([1]; Homo sapiens, A549, 7 h): 1060 nM
